Source: patent EP4434996A1, “MICELLES IN CANCER TREATMENT” (Commissariat à l'Energie Atomique et aux Energies …, priority 2023, dated 2024)
Entries after “also recorded” stand apart in the source; their conditions may differ.

How the values were obtained:
[1] = Detection of singlet oxygen with DPBF under 740 nm irradiation; type: physicochemical
Procedure: Preparation of DPBF@C18-PEG2k and TPBC@C18-PEG2k. To a solution of C18-Fc-PEG2k (10 mg mL^-1) in water (1 mL) was added a solution of TPBC (bacteriochlorin) or DPBF (1,3-diphenylisobenzofuran) (12.5 µL, 1 mg mL^-1) in chloroform (1 mL). The mixture was sonicated using an ultrasound sonicator probe (power 40%, 10 min, pulse) allowing TPBC or DPBF to be gradually encapsulated by evaporation of chloroform via heating of the probe. The resulting TPBC/DPBF@C18-Fc-PEG2k colloidal suspension was filtered on 0.45 µm nylon membrane to eliminate any free TPBC or DPBF from the medium.
Preparation of TPBC-DPBF@C18-PEG2k. To a solution of C18-Fc-PEG2k (10 mg mL^-1) in water (1 mL) was added a solution of TPBC (12.5 µL, 1 mg mL^-1) in chloroform (1 mL). The mixture was sonicated using an ultrasound sonicator probe (power 40%, 10 min, pulse) allowing TPBC to be gradually encapsulated by evaporation of chloroform via heating of the probe. […]
1,3-Diphenylisobenzofuran (DPBF) is a reagent for detecting singlet oxygen. […] The reaction was monitored using UV-vis spectroscopy (Fig. 8B). […]
First, we ensured that both TPBC and DPBF could be encapsulated into our C18-PEG2k micelles individually. […] TPBC-DPBF@C18-PEG2k was then irradiated under 740 nm light and the photoreaction was monitored by UV-vis spectroscopy every 20 sec (Fig. 9C).

[2] = Solubility in water by UV measurement; type: physicochemical; settings: without micelles

Row | Structure (SMILES) | stability of DPBF under NIR light ([1]; in DMSO, several minutes, without TPBC) | solubility in water [2] | time to complete degradation of DPBF ([1]; DPBF and TPBC in DMSO)
1 | c1ccc(-c2oc(-c3ccccc3)c3ccccc23)cc1 [DPBF, 1,3-diphenylisobenzofuran] | no alteration was observed | not soluble in water; also recorded: insoluble in water | 
2 | c1ccc(-c2c3nc(c(-c4ccccc4)c4ccc([nH]4)c(-c4ccccc4)c4nc(c(-c5ccccc5)c5ccc2[nH]5)CC4)CC3)cc1 [TPBC, tetraphenylbacteriochlorin] |  | not soluble in water; also recorded: insoluble in water | 60 s
